Laboratory results as given in patent US20060069132A1, “Azolecarboxamide herbicides” (priority 2004, published 2006).

Columns and labels:
bermudagrass = test: Test C pre-/postemergence herbicide test; format: in vivo, Cynodon dactylon; conditions: for Bermudagrass plant response rating: 500 g ai/ha
Summary of the method: (§1)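 Visual ratings on a 0–100 scale (100 = complete control) made versus untreated controls after 12 to 14 greenhouse days. Test chemicals, formulated in surfactant-containing non-phytotoxic solvent, applied preemergence to planted seeds or postemergence to 1- to 4-leaf plants (2 to 18 cm).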

barnyardgrass [1] = test: Test A pre-/postemergence herbicide test; format: in vivo, Echinochloa crus-galli
Summary of the method: (§2)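 Visual injury scores on a 0–100 scale (100 = complete control) taken about ten days post-treatment in greenhouse against untreated controls; dash means no result. Treatments: preemergence soil spray and postemergence spray to runoff on one- to two-leaf plants 2 to 10 cm tall, surfactant-containing formulation.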

barnyardgrass [2] = test: Test C flooded paddy test; format: in vivo, Echinochloa crus-galli; conditions: for Plant response rating, Barnyardgrass: 500 g ai/ha, visual rating after 12 to 14 days
Summary of the method: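 After a postemergence application at 1 to 4 leaves (plants 2–18 cm high), or at 2 leaves for barnyardgrass in flooded paddy, plants stayed in the greenhouse for 12 to 14 days. Damage was then judged visually relative to control plants, with 100 indicating complete control.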

giant foxtail [3] = test: Test A pre-/postemergence herbicide test; format: in vivo, Setaria faberi
Summary of the method: as §2

soybean = test: Test C pre-/postemergence herbicide test; format: in vivo, Glycine max; conditions: for Soybean plant response rating: 500 g ai/ha
Summary of the method: as §1

[4] = test system: common (oilseed) sunflower; test: Test C pre-/postemergence herbicide test; format: in vivo, Helianthus annuus; conditions: for Plant response rating (0 = no effect, 100 = complete control), Sunflower: 62 g ai/ha; for Plant response rating (0 = no effect, 100 = complete control), Sunflower / Plant response rating, Sunflower: preemergence; for Plant response rating, Sunflower: 125 g ai/ha, scale 0 (no effect) to 100 (complete control), visual, 12 to 14 days; for Sunflower plant response rating: Preemergence, 500 g ai/ha, scale 0 to 100, 0 no effect, 100 complete control
Summary of the method: as §1

giant foxtail [5] = test: Test C pre-/postemergence herbicide test; format: in vivo, Setaria faberi; conditions: for Foxtail, Giant plant response rating: 500 g ai/ha
Summary of the method: as §1

lambsquarters = test: Test C pre-/postemergence herbicide test; format: in vivo, Chenopodium album; conditions: for Lambsquarters plant response rating: 500 g ai/ha
Summary of the method: as §1

rice = test: Test C flooded paddy test; format: in vivo, Oryza sativa; conditions: for Plant response rating, Rice: 500 g ai/ha, visual rating after 12 to 14 days
Summary of the method: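 Postemergence sprays applied to plants 2 to 18 cm tall (1- to 4-leaf stage); paddy species grown to 2-leaf stage under flooding. After 12 to 14 days in greenhouse, visual rating versus untreated controls on 0–100 scale (0 no effect, 100 complete control).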

large crabgrass [6] = test: Test A pre-/postemergence herbicide test; format: in vivo, Digitaria sanguinalis
Summary of the method: as §2

kochia = test: Test C pre-/postemergence herbicide test; format: in vivo, Kochia scoparia; conditions: for Kochia plant response rating: 500 g ai/ha
Summary of the method: as §1

ducksalad = test: Test C flooded paddy test; format: in vivo, Heteranthera limosa; conditions: for Plant response rating, Ducksalad: 500 g ai/ha, visual rating after 12 to 14 days
large crabgrass [7] = test: Test C pre-/postemergence herbicide test; format: in vivo, Digitaria sanguinalis; conditions: for Crabgrass, Large plant response rating: 500 g ai/ha
Summary of the method: as §1

[8] = 125 g ai/ha, scale 0 (no effect) to 100 (complete control), visual, 12 to 14 days, preemergence
[9] = 250 g ai/ha, scale 0 to 100 (0 no effect, 100 complete control), visual, 12 to 14 days, preemergence
[10] = Preemergence, scale 0 to 100, 0 no effect, 100 complete control
[11] = Postemergence, 500 g ai/ha, 0 to 100 scale, 0 no effect, 100 complete control
[12] = Postemergence, 2000 g ai/ha, 0 to 100 scale, 0 no effect, 100 complete control
[13] = Preemergence, 500 g ai/ha, visual rating, 0 to 100 scale (0 no effect, 100 complete control)
[14] = Preemergence, 2000 g ai/ha, 0 to 100 scale, 0 no effect, 100 complete control
[15] = 62 g ai/ha, scale 0 to 100 (0 no effect, 100 complete control)
[16] = 125 g ai/ha, scale of 0 to 100, 0 is no effect, 100 is complete control
[17] = 250 g ai/ha, scale of 0 to 100, 0 is no effect, 100 is complete control
[18] = scale 0 to 100 (0 no effect, 100 complete control)
[19] = Postemergence, 250 g ai/ha, scale 0 to 100, 0 no effect, 100 complete control
[20] = postemergence, 125 g ai/ha, scale 0 to 100
[21] = postemergence, 62 g ai/ha, scale 0 to 100

## CCOC(=O)c1cccc(NC(=O)c2cc(C(C)(C)C)nn2CC)c1C [Compound 88]
bermudagrass; 62 g ai/ha, preemergence
  Plant response rating (0 = no effect, 100 = complete control), Bermudagrass: 90
bermudagrass; [8]
  Plant response rating, Bermudagrass: 95
bermudagrass; [9]
  Plant response rating, Bermudagrass: 95
bermudagrass; [10]
  Bermudagrass plant response rating: 95
Barnyardgrass [1]; [11]
  Barnyardgrass plant response rating: 85
Barnyardgrass [1]; [12]
  Plant response rating, Barnyardgrass: 100
Barnyardgrass [1]; [13]
  Barnyardgrass plant response rating: 75
Barnyardgrass [1]; [14]
  Barnyardgrass plant response rating: 90
Barnyardgrass [2]; [15]
  Barnyardgrass plant response rating: 0
Barnyardgrass [2]; [16]
  Barnyardgrass plant response rating: 0
Barnyardgrass [2]; [17]
  Barnyardgrass plant response rating: 15
Barnyardgrass [2]; [18]
  Plant response rating, Barnyardgrass: 45
Giant foxtail [3]; [11]
  Foxtail, Giant plant response rating: 20
Giant foxtail [3]; [12]
  Plant response rating, Foxtail, Giant: 60
Giant foxtail [3]; [13]
  Foxtail, Giant plant response rating: 55
Giant foxtail [3]; [14]
  Foxtail, Giant plant response rating: 90
soybean; 62 g ai/ha, preemergence
  Plant response rating (0 = no effect, 100 = complete control), Soybean: 0
soybean; [8]
  Plant response rating, Soybean: 0
soybean; [10]
  Soybean plant response rating: 10
[4]
  Plant response rating (0 = no effect, 100 = complete control), Sunflower: 0
  Plant response rating, Sunflower: 0
  Sunflower plant response rating: 0
Giant foxtail [5]; 62 g ai/ha, preemergence
  Plant response rating (0 = no effect, 100 = complete control), Foxtail, Giant: 0
Giant foxtail [5]; [8]
  Plant response rating, Foxtail, Giant: 50
Giant foxtail [5]; [9]
  Plant response rating, Foxtail, Giant: 85
Giant foxtail [5]; [10]
  Foxtail, Giant plant response rating: 100
lambsquarters; 62 g ai/ha, preemergence
  Plant response rating (0 = no effect, 100 = complete control), Lambsquarters: 95
lambsquarters; [8]
  Plant response rating, Lambsquarters: 95
lambsquarters; [10]
  Lambsquarters plant response rating: 100
rice; [15]
  Rice plant response rating: 0
rice; [16]
  Rice plant response rating: 0
rice; [17]
  Rice plant response rating: 20
rice; [18]
  Plant response rating, Rice: 45
Large crabgrass [6]; [11]
  Crabgrass, Large plant response rating: 85
Large crabgrass [6]; [12]
  Plant response rating, Crabgrass, Large: 95
Large crabgrass [6]; [13]
  Crabgrass, Large plant response rating: 45
Large crabgrass [6]; [14]
  Crabgrass, Large plant response rating: 100
kochia; 62 g ai/ha, preemergence
  Plant response rating (0 = no effect, 100 = complete control), Kochia: 0
kochia; [8]
  Plant response rating, Kochia: 85
kochia; [10]
  Kochia plant response rating: 100
ducksalad; [15]
  Ducksalad plant response rating: 0
ducksalad; [16]
  Ducksalad plant response rating: 15
ducksalad; [17]
  Ducksalad plant response rating: 40
ducksalad; [18]
  Plant response rating, Ducksalad: 75
Large crabgrass [7]; 62 g ai/ha, preemergence
  Plant response rating (0 = no effect, 100 = complete control), Crabgrass, Large: 90
Large crabgrass [7]; [8]
  Plant response rating, Crabgrass, Large: 95
Large crabgrass [7]; [9]
  Plant response rating, Crabgrass, Large: 95
Large crabgrass [7]; [10]
  Crabgrass, Large plant response rating: 100

## CCOC(=O)c1cc(NC(=O)c2cc(C(C)(C)C)nn2CC)ccc1OC [Compound 96]
bermudagrass; 62 g ai/ha, preemergence
  Plant response rating (0 = no effect, 100 = complete control), Bermudagrass: 40
bermudagrass; [8]
  Plant response rating, Bermudagrass: 80
bermudagrass; [9]
  Plant response rating, Bermudagrass: 85
bermudagrass; Postemergence, scale 0 to 100
  Bermudagrass plant response rating: 5
bermudagrass; [19]
  Plant response rating, Bermudagrass: 5
bermudagrass; [10]
  Bermudagrass plant response rating: 100
bermudagrass; [20]
  Plant response rating, Bermudagrass: 0
bermudagrass; [21]
  Plant response rating, Bermudagrass: 0
Barnyardgrass [1]; [11]
  Barnyardgrass plant response rating: 60
Barnyardgrass [1]; [12]
  Plant response rating, Barnyardgrass: 80
Barnyardgrass [1]; [13]
  Barnyardgrass plant response rating: 70
Barnyardgrass [1]; [14]
  Barnyardgrass plant response rating: 90
Barnyardgrass [2]; [15]
  Barnyardgrass plant response rating: 45
Barnyardgrass [2]; [16]
  Barnyardgrass plant response rating: 45
Barnyardgrass [2]; [17]
  Barnyardgrass plant response rating: 70
Barnyardgrass [2]; [18]
  Plant response rating, Barnyardgrass: 80
Giant foxtail [3]; [11]
  Foxtail, Giant plant response rating: 60
Giant foxtail [3]; [12]
  Plant response rating, Foxtail, Giant: 80
Giant foxtail [3]; [13]
  Foxtail, Giant plant response rating: 75
Giant foxtail [3]; [14]
  Foxtail, Giant plant response rating: 95
soybean; 62 g ai/ha, preemergence
  Plant response rating (0 = no effect, 100 = complete control), Soybean: 0
soybean; [8]
  Plant response rating, Soybean: 5
soybean; Postemergence, scale 0 to 100
  Soybean plant response rating: 100
soybean; [19]
  Plant response rating, Soybean: 100
soybean; [10]
  Soybean plant response rating: 50
soybean; [20]
  Plant response rating, Soybean: 100
soybean; [21]
  Plant response rating, Soybean: 100
[4]
  Plant response rating (0 = no effect, 100 = complete control), Sunflower: 0
  Plant response rating, Sunflower: 0
  Sunflower plant response rating: 35
Giant foxtail [5]; 62 g ai/ha, preemergence
  Plant response rating (0 = no effect, 100 = complete control), Foxtail, Giant: 70
Giant foxtail [5]; [8]
  Plant response rating, Foxtail, Giant: 100
Giant foxtail [5]; [9]
  Plant response rating, Foxtail, Giant: 100
Giant foxtail [5]; Postemergence, scale 0 to 100
  Foxtail, Giant plant response rating: 60
Giant foxtail [5]; [19]
  Plant response rating, Foxtail, Giant: 45
Giant foxtail [5]; [10]
  Foxtail, Giant plant response rating: 100
Giant foxtail [5]; [20]
  Plant response rating, Foxtail, Giant: 20
Giant foxtail [5]; [21]
  Plant response rating, Foxtail, Giant: 10
lambsquarters; Postemergence, scale 0 to 100
  Lambsquarters plant response rating: 100
lambsquarters; [19]
  Plant response rating, Lambsquarters: 95
lambsquarters; [20]
  Plant response rating, Lambsquarters: 80
lambsquarters; [21]
  Plant response rating, Lambsquarters: 60
rice; [15]
  Rice plant response rating: 40
rice; [16]
  Rice plant response rating: 45
rice; [17]
  Rice plant response rating: 70
rice; [18]
  Plant response rating, Rice: 75
Large crabgrass [6]; [11]
  Crabgrass, Large plant response rating: 30
Large crabgrass [6]; [12]
  Plant response rating, Crabgrass, Large: 70
Large crabgrass [6]; [13]
  Crabgrass, Large plant response rating: 80
Large crabgrass [6]; [14]
  Crabgrass, Large plant response rating: 100
kochia; 62 g ai/ha, preemergence
  Plant response rating (0 = no effect, 100 = complete control), Kochia: 90
kochia; [8]
  Plant response rating, Kochia: 95
kochia; Postemergence, scale 0 to 100
  Kochia plant response rating: 90
kochia; [19]
  Plant response rating, Kochia: 85
kochia; [10]
  Kochia plant response rating: 100
kochia; [20]
  Plant response rating, Kochia: 80
kochia; [21]
  Plant response rating, Kochia: 80
ducksalad; [15]
  Ducksalad plant response rating: 45
ducksalad; [16]
  Ducksalad plant response rating: 45
ducksalad; [17]
  Ducksalad plant response rating: 75
ducksalad; [18]
  Plant response rating, Ducksalad: 90
Large crabgrass [7]; 62 g ai/ha, preemergence
  Plant response rating (0 = no effect, 100 = complete control), Crabgrass, Large: 85
Large crabgrass [7]; [8]
  Plant response rating, Crabgrass, Large: 100
Large crabgrass [7]; [9]
  Plant response rating, Crabgrass, Large: 100
Large crabgrass [7]; Postemergence, scale 0 to 100
  Crabgrass, Large plant response rating: 5
Large crabgrass [7]; [19]
  Plant response rating, Crabgrass, Large: 5
Large crabgrass [7]; [10]
  Crabgrass, Large plant response rating: 100
Large crabgrass [7]; [20]
  Plant response rating, Crabgrass, Large: 0
Large crabgrass [7]; [21]
  Plant response rating, Crabgrass, Large: 0
